Data reported in ChEMBL document CHEMBL1132978, “Artificial neural network applied to prediction of fluorquinolone antibacterial activity by topological methods” (2000).
≈ marks a conversion by molar mass, not a printed value.

test system: Escherichia coli; experiment: Minimum inhibitory concentration against Escherichia coli; type: functional

Structure (SMILES)	MIC [µg/mL]
COc1c(N2CCC(N)CC2)c(F)c(N)c2c(=O)c(C(=O)O)cn(C3CC3)c12	0.1 (≈ 0.256 µM)
CNCC1CCN(c2cc3c(cc2F)c(=O)c(C(=O)O)cn3-c2ccc(F)cc2F)C1 (centres undefined)	0.2 (≈ 0.464 µM)
CC1CN(c2cc3c(cc2F)c(=O)c(C(=O)O)cn3C2CCC2)CC(C)N1 (centres undefined)	0.4 (≈ 1.07 µM)
CCn1cc(C(=O)O)c(=O)c2cc(F)c(N3CCC(CNC)C3)cc21 (centres undefined)	3.1 (≈ 8.92 µM)
NCC1CCN(c2c(F)cc3c(=O)c(C(=O)O)cn(C4CC4)c3c2F)C1 (centres undefined)	0.025 (≈ 0.0688 µM)
COc1c(N2CCNCC2)c(F)cc2c(=O)c(C(=O)O)cn(C3CC3)c12	0.05 (≈ 0.138 µM)
CNCC1CCN(c2cc3c(cc2F)c(=O)c(C(=O)O)cn3C(C)(C)C)C1 (centres undefined)	0.4 (≈ 1.07 µM)
CC(C)(C)n1cc(C(=O)O)c(=O)c2cc(F)c(N3CCNCC3)cc21	0.2 (≈ 0.576 µM)
CCOc1c(N2CCC(C)C2)c(F)cc2c(=O)c(C(=O)O)cn(C3CC3)c12 (centres undefined)	0.05 (≈ 0.134 µM)
CC(C)N1CCN(c2cc3c(cc2F)c(=O)c(C(=O)O)cn3-c2ccc(F)cc2F)CC1	0.8 (≈ 1.8 µM)
CC(N)C1CCN(c2cc3c(c(N)c2F)c(=O)c(C(=O)O)cn3C2CC2)C1 (centres undefined)	0.025 (≈ 0.0668 µM)
COc1c(N2CCC(CN)CC2)c(F)cc2c(=O)c(C(=O)O)cn(C3CC3)c12	0.1 (≈ 0.257 µM)
COc1c(N2CCCC(N)C2)c(F)c(N)c2c(=O)c(C(=O)O)cn(C3CC3)c12 (centres undefined)	0.1 (≈ 0.256 µM)
NC1CCN(c2cc3c(cc2F)c(=O)c(C(=O)O)cn3C2CC2)C1 (centres undefined)	0.05 (≈ 0.151 µM)
CCCCN1CCN(c2cc3c(cc2F)c(=O)c(C(=O)O)cn3C2CC2)CC1	0.1 (≈ 0.258 µM)
NCC1CCCN(c2c(F)cc3c(=O)c(C(=O)O)cn(C4CC4)c3c2F)C1 (centres undefined)	0.05 (≈ 0.132 µM)
CCN1CCN(c2cc3c(cc2F)c(=O)c(C(=O)O)cn3C2CCC2)CC1	0.8 (≈ 2.14 µM)
CCOc1c(N2CCCC(N)C2)c(F)cc2c(=O)c(C(=O)O)cn(C3CC3)c12 (centres undefined)	0.2 (≈ 0.514 µM)
CCNCC1CCN(c2c(F)cc3c(=O)c(C(=O)O)cn(C4CC4)c3c2OCC)CC1	0.8 (≈ 1.85 µM)
Nc1c(F)c(N2CCC(N)C2)c(F)c2c1c(=O)c(C(=O)O)cn2C1CC1 (centres undefined)	0.006 (≈ 0.0165 µM)
CNC(C)C1CCN(c2cc3c(c(N)c2F)c(=O)c(C(=O)O)cn3C2CC2)C1 (centres undefined)	0.1 (≈ 0.257 µM)
NCC1CCCN(c2cc3c(cc2F)c(=O)c(C(=O)O)cn3C2CC2)C1 (centres undefined)	0.4 (≈ 1.11 µM)
COc1c(N2CCC(C)(CN)C2)c(F)c(N)c2c(=O)c(C(=O)O)cn(C3CC3)c12 (centres undefined)	0.1 (≈ 0.247 µM)
CCNCC1CCN(c2nc3c(cc2F)c(=O)c(C(=O)O)cn3-c2ccc(F)cc2F)C1 (centres undefined)	0.2 (≈ 0.448 µM)
CCNCC1CCN(c2nc3c(cc2F)c(=O)c(C(=O)O)cn3C2CC2)C1 (centres undefined)	0.1 (≈ 0.267 µM)

Structure (SMILES)	MIC [µg/mL]
CCNCC1CCN(c2cc3c(cc2F)c(=O)c(C(=O)O)cn3C2CC2)C1 (centres undefined)	0.1 (≈ 0.268 µM)
NCC1CCN(c2nc3c(cc2F)c(=O)c(C(=O)O)cn3C2CC2)C1 (centres undefined)	0.05 (≈ 0.144 µM)
CC1CN(c2cc3c(cc2F)c(=O)c(C(=O)O)cn3C2CC2)CC(C)N1 (centres undefined)	0.05 (≈ 0.139 µM)
CN(C)CC1CCN(c2cc3c(cc2F)c(=O)c(C(=O)O)cn3C2CC2)C1 (centres undefined)	0.2 (≈ 0.536 µM)
CC(C)n1cc(C(=O)O)c(=O)c2cc(F)c(N3CCC(N)C3)cc21 (centres undefined)	0.8 (≈ 2.4 µM)
O=C(O)c1cn(-c2ccc(F)cc2F)c2cc(N3CCNCC3)c(F)cc2c1=O	0.1 (≈ 0.248 µM)
CCNCC1CCN(c2cc3c(cc2F)c(=O)c(C(=O)O)cn3-c2ccc(F)cc2F)C1 (centres undefined)	0.4 (≈ 0.898 µM)
NCC1CCCN(c2c(F)cc3c(=O)c(C(=O)O)cn(C4CC4)c3c2N)C1 (centres undefined)	0.4 (≈ 1.07 µM)
NCC1CCCN(c2c(F)cc3c(=O)c(C(=O)O)cn(C4CC4)c3c2Cl)C1 (centres undefined)	0.1 (≈ 0.254 µM)
CC1CN(c2cc3c(cc2F)c(=O)c(C(=O)O)cn3C2CC2)CCN1 (centres undefined)	0.05 (≈ 0.145 µM)
CCOc1c(N2CCCC(CN)C2)c(F)cc2c(=O)c(C(=O)O)cn(C3CC3)c12 (centres undefined)	0.2 (≈ 0.496 µM)
CC(C)N1CCN(c2cc3c(cc2F)c(=O)c(C(=O)O)cn3C2CC2)CC1	0.1 (≈ 0.268 µM)
CCOc1c(N2CCNC(C)C2)c(F)cc2c(=O)c(C(=O)O)cn(C3CC3)c12 (centres undefined)	0.1 (≈ 0.257 µM)
NC1CCN(c2cc3c(cc2F)c(=O)c(C(=O)O)cn3C2CCC2)C1 (centres undefined)	0.4 (≈ 1.16 µM)
CNCC1CCN(c2cc3c(cc2F)c(=O)c(C(=O)O)cn3C2CCC2)C1 (centres undefined)	0.8 (≈ 2.14 µM)
NCC1CCN(c2c(F)c(N)c3c(=O)c(C(=O)O)cn(C4CC4)c3c2F)C1 (centres undefined)	0.013 (≈ 0.0344 µM)
NC1CCN(c2c(F)cc3c(=O)c(C(=O)O)cn(C4CC4)c3c2C(F)(F)F)C1 (centres undefined)	0.1 (≈ 0.25 µM)
COc1c(N2CC(C)NC(C)C2)c(F)cc2c(=O)c(C(=O)O)cn(C3CC3)c12 (centres undefined)	0.1 (≈ 0.257 µM)
NC1CCN(c2c(F)cc3c(=O)c(C(=O)O)cn(C4CC4)c3c2F)C1 (centres undefined)	0.013 (≈ 0.0372 µM)
CCn1cc(C(=O)O)c(=O)c2cc(F)c(N3CCC(N)C3)c(OC)c21 (centres undefined)	0.2 (≈ 0.572 µM)
CCOc1c(N2CCC(C)(CN)C2)c(F)c(N)c2c(=O)c(C(=O)O)cn(C3CC3)c12 (centres undefined)	0.2 (≈ 0.478 µM)
CCn1cc(C(=O)O)c(=O)c2cc(F)c(N3CCC(CN)C3)c(F)c21 (centres undefined)	0.1 (≈ 0.285 µM)
CCn1cc(C(=O)O)c(=O)c2cc(F)c(N3CCC(N)C3)cc21 (centres undefined)	0.4 (≈ 1.25 µM)
CCC1CN(c2cc3c(cc2F)c(=O)c(C(=O)O)cn3C2CC2)CCN1 (centres undefined)	0.1 (≈ 0.278 µM)
COc1c(N2CCC(CN)C2)c(F)cc2c(=O)c(C(=O)O)cn(C3CC3)c12 (centres undefined)	0.05 (≈ 0.133 µM)

Structure (SMILES)	MIC [µg/mL]
CCOc1c(N2CCC(C)(CN)C2)c(F)cc2c(=O)c(C(=O)O)cn(C3CC3)c12 (centres undefined)	0.2 (≈ 0.496 µM)
CC1CN(c2cc3c(cc2F)c(=O)c(C(=O)O)cn3C(C)C)CCN1 (centres undefined)	0.8 (≈ 2.3 µM)
CC(C)n1cc(C(=O)O)c(=O)c2cc(F)c(N3CCNCC3)cc21	0.8 (≈ 2.4 µM)
CC1(CN)CCN(c2nc3c(cc2F)c(=O)c(C(=O)O)cn3C2CC2)C1 (centres undefined)	0.2 (≈ 0.555 µM)
CC1CN(c2cc3c(cc2F)c(=O)c(C(=O)O)cn3C2CCC2)CCN1 (centres undefined)	0.4 (≈ 1.11 µM)
CNCC1CCN(c2c(F)c(N)c3c(=O)c(C(=O)O)cn(C4CC4)c3c2F)C1 (centres undefined)	0.025 (≈ 0.0637 µM)
COc1c(N2CCN(C)CC2)c(F)cc2c(=O)c(C(=O)O)cn(C3CC3)c12	0.1 (≈ 0.266 µM)
COc1c(N2CCC(N)C2)c(F)cc2c(=O)c(C(=O)O)cn(C3CC3)c12 (centres undefined)	0.025 (≈ 0.0692 µM)
COc1c(N2CCC(C)(CN)C2)c(F)cc2c(=O)c(C(=O)O)cn(C3CC3)c12 (centres undefined)	0.1 (≈ 0.257 µM)
CCN1CCN(c2cc3c(cc2F)c(=O)c(C(=O)O)cn3C(C)C)CC1	1.6 (≈ 4.43 µM)
NC1CCN(c2nc3c(cc2F)c(=O)c(C(=O)O)cn3C2CC2)C1 (centres undefined)	0.013 (≈ 0.0391 µM)
NCC1CCN(c2nc3c(cc2F)c(=O)c(C(=O)O)cn3-c2ccc(F)cc2F)C1 (centres undefined)	0.05 (≈ 0.12 µM)
CCn1cc(C(=O)O)c(=O)c2cc(F)c(N3CCC(N)C3)c(F)c21 (centres undefined)	0.05 (≈ 0.148 µM)
CC(C)NCC1CCN(c2cc3c(cc2F)c(=O)c(C(=O)O)cn3C2CC2)C1 (centres undefined)	0.4 (≈ 1.03 µM)
Nc1c(F)c(N2CCC(N)C2)cc2c1c(=O)c(C(=O)O)cn2C1CC1 (centres undefined)	0.013 (≈ 0.0375 µM)
CCNCC1CCN(c2c(F)cc3c(=O)c(C(=O)O)cn(C4CC4)c3c2OC)C1 (centres undefined)	0.1 (≈ 0.248 µM)
CC1(CN)CCN(c2cc3c(cc2F)c(=O)c(C(=O)O)cn3C2CC2)C1 (centres undefined)	0.1 (≈ 0.278 µM)
CCOc1c(N2CCCC(N)C2)c(F)c(N)c2c(=O)c(C(=O)O)cn(C3CC3)c12 (centres undefined)	0.2 (≈ 0.495 µM)
CNCC1CCN(c2cc3c(cc2F)c(=O)c(C(=O)O)cn3C2CC2)C1 (centres undefined)	0.2 (≈ 0.556 µM)
CCN1CCN(c2cc3c(cc2F)c(=O)c(C(=O)O)cn3-c2ccc(F)cc2F)CC1	0.4 (≈ 0.927 µM)
CC1CN(c2cc3c(cc2F)c(=O)c(C(=O)O)cn3-c2ccc(F)cc2F)CC(C)N1 (centres undefined)	0.4 (≈ 0.927 µM)
CCOc1c(N2CCC(N)C2)c(F)c(N)c2c(=O)c(C(=O)O)cn(C3CC3)c12 (centres undefined)	0.05 (≈ 0.128 µM)
COc1c(N2CCCC(CN)C2)c(F)c(N)c2c(=O)c(C(=O)O)cn(C3CC3)c12 (centres undefined)	0.1 (≈ 0.247 µM)
CN1CCN(c2cc3c(cc2F)c(=O)c(C(=O)O)cn3C2CC2)CC1	0.05 (≈ 0.145 µM)
